According to ChEMBL document CHEMBL1201862, “PubChem BioAssay data set” (2004):
“And” between values parts separate entries of the source, which are not always exact repeats. Equal values may be shown once.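 48-hour exposure; five concentrations; linearly interpolated endpoints. GI50 marks 50% less growth.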 The source made the active and inactive calls. Rule as the data show it: active = GI50 up to about 1.1 µM and inactive = higher.

Key:
Assay in all cases: NCI-60 cell line screen, 48 h
UACC-62 = tested on: UACC-62
CAKI-1 = tested on: CAKI-1
SK-OV-3 = tested on: SK-OV-3
UACC-257 = tested on: UACC-257
HOP-92 = tested on: HOP-92
EKVX = tested on: EKVX
SR = tested on: SR
SK-MEL-5 = tested on: SK-MEL-5
CCRF-CEM = tested on: CCRF-CEM
ACHN = tested on: ACHN
HCC 2998 = tested on: HCC 2998
RXF 393 = tested on: RXF 393
A498 = tested on: A498

Measured: GI50

CC1=C2C(=O)O[C@@H](c3ccoc3)[C@]2(C)CCC1 [FRAXINELLONE]
inactive: UACC-62 > 100 µM | CAKI-1 > 100 µM | SK-OV-3 > 100 µM | UACC-257 > 100 µM | HOP-92 23.1 µM | EKVX > 100 µM | SR > 100 µM | SK-MEL-5 > 100 µM | CCRF-CEM > 100 µM | ACHN > 100 µM | HCC 2998 > 100 µM

CC(=O)OCC1OC(N2C(=O)C(=O)c3cc(C)ccc32)C(OC(C)=O)C(OC(C)=O)C1OC(C)=O (stereo not given)
inactive: UACC-62 37.4 µM | CAKI-1 > 100 µM | RXF 393 39.8 µM | A498 > 100 µM | SK-OV-3 > 100 µM | UACC-257 > 100 µM | HOP-92 51.5 µM | EKVX > 100 µM | SR 15.5 µM | SK-MEL-5 58.7 µM | CCRF-CEM 49.5 µM | ACHN 50.9 µM

CC1CN(c2ccc(Cl)cc2)CC(C)(C)OC(=O)O1 (stereo not given)
inactive: UACC-62 > 100 µM | CAKI-1 > 100 µM | RXF 393 > 100 µM | SK-OV-3 > 100 µM | UACC-257 > 100 µM | HOP-92 > 100 µM | EKVX > 100 µM | SR > 100 µM | SK-MEL-5 > 100 µM | CCRF-CEM > 100 µM | ACHN > 100 µM | HCC 2998 > 100 µM

C/C(=N\OCC(O)CNC(C)C)c1ccc2c(c1)NC(=O)CS2 (stereo not given)
inactive: UACC-62 > 100 µM | RXF 393 > 100 µM | A498 > 100 µM | SK-OV-3 > 100 µM | UACC-257 > 100 µM | HOP-92 42.1 µM | EKVX > 100 µM | SK-MEL-5 > 100 µM | CCRF-CEM > 100 µM | ACHN > 100 µM | HCC 2998 > 100 µM

Sc1nnc(C(c2ccccc2)c2ccccc2)[nH]1
inactive: UACC-62 > 100 µM | RXF 393 > 100 µM | A498 > 100 µM | SK-OV-3 > 100 µM | UACC-257 > 100 µM | EKVX > 100 µM | SK-MEL-5 > 100 µM | CCRF-CEM > 100 µM | ACHN > 100 µM | HCC 2998 > 100 µM

O=C1c2ccccc2-c2c3c(cc4ccnc1c24)OCO3 [LIRIODENINE]
inactive: UACC-62 4.57 µM and 2.77 µM | CAKI-1 3.63 µM and 3.77 µM | RXF 393 5.55 µM and 5.06 µM | A498 3.48 µM | SK-OV-3 22.2 µM and 17.9 µM | HOP-92 8.69 µM and 5.61 µM | EKVX 3.46 µM and 5.15 µM | SK-MEL-5 2.84 µM | CCRF-CEM 4.1 µM and 2.7 µM | ACHN 3.94 µM and 4.32 µM | HCC 2998 4.51 µM

Cc1cc(C)nc(NS(=O)(=O)c2ccc(NC(=O)c3cccc4c(Nc5ccc(S(=O)(=O)Nc6nc(C)cc(C)n6)cc5)c5ccc(Cl)cc5nc34)cc2)n1
inactive: UACC-62 23.1 µM | CAKI-1 19.5 µM | RXF 393 78.3 µM | A498 45 µM | SK-OV-3 26.7 µM | UACC-257 20.8 µM | HOP-92 28 µM | EKVX 29.5 µM | SK-MEL-5 20.1 µM | CCRF-CEM 27.5 µM | ACHN 27.3 µM | HCC 2998 36.6 µM

CCC(C)NC1=C(NC(C)=O)C(=O)c2ccccc2C1=O (stereo not given)
inactive: UACC-62 > 75 µM | CAKI-1 > 75 µM | RXF 393 > 75 µM | A498 > 75 µM | SK-OV-3 > 75 µM | UACC-257 > 75 µM | HOP-92 > 75 µM | EKVX > 75 µM | SK-MEL-5 > 75 µM | CCRF-CEM 21.8 µM | ACHN > 75 µM | HCC 2998 > 75 µM

CCOC(=O)C1N(S(=O)(=O)c2ccc(C)cc2)CCC12C(c1ccc(OC)cc1)NC1CCCCC12 (stereo not given)
inactive: UACC-62 > 100 µM | CAKI-1 > 100 µM | RXF 393 44.4 µM | A498 > 100 µM | SK-OV-3 > 100 µM | UACC-257 > 100 µM | HOP-92 22.9 µM | EKVX > 100 µM | SK-MEL-5 > 100 µM | CCRF-CEM > 100 µM | ACHN > 100 µM | HCC 2998 > 100 µM

COC(=O)C1CC/C(=N\c2cccc(C(F)(F)F)c2)N1 (stereo not given)
inactive: UACC-62 > 100 µM | CAKI-1 > 100 µM | A498 > 100 µM | SK-OV-3 > 100 µM | UACC-257 > 100 µM | HOP-92 > 100 µM | EKVX > 100 µM | CCRF-CEM > 100 µM | ACHN > 100 µM | HCC 2998 > 100 µM

c1ccc(C2Nc3ccccc3C3OCCCC23)cc1 (stereo not given)
inactive: UACC-62 11.6 µM | CAKI-1 2.47 µM | RXF 393 18.7 µM | A498 21.2 µM | UACC-257 30.9 µM | HOP-92 26.4 µM | EKVX 20.9 µM | SK-MEL-5 5.06 µM | CCRF-CEM 20.2 µM | ACHN 11.3 µM | HCC 2998 35.8 µM

OC1c2ccccc2C2(O)C1C(c1ccccc1)C(c1ccccc1)C2(O)c1ccccc1 (stereo not given)
inactive: UACC-62 10.4 µM | CAKI-1 15.5 µM | RXF 393 16 µM | SK-OV-3 22.2 µM | UACC-257 14.3 µM | HOP-92 7.33 µM | EKVX 15.4 µM | SK-MEL-5 7.13 µM | CCRF-CEM 8.18 µM | ACHN 5.82 µM | HCC 2998 11.2 µM
